Measurements: patent US9409905B2, “Antibacterial compounds and methods for use” (PTC THERAPEUTICS, INC., priority 2011, dated 2016)
Values after ≈ are worked out from the molar mass of the structure shown.

Assays:
[1] = system: E. coli 25922; test: Antibacterial activity, microbroth dilution MIC (Table 1); assay type: cell-based, Escherichia coli; conditions: Escherichia coli; microbroth dilution; control Gram-negative E. coli 25922 strain; read-out: MIC, 25922
How it was run: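 Potency is reported as minimum inhibitory concentration in μg/mL, determined by broth microdilution as the lowest level of compound that stops growth visible to the eye.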

[2] = system: E. coli LZ3111; test: Antibacterial activity, MIC, quinolone resistant strain (Table 2); assay type: cell-based; conditions: Escherichia coli, LZ3111, read-out: MIC LZ3111
How it was run: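 Growth inhibition assessed by serial drug dilution in broth; endpoint was absence of macroscopically visible growth, reported as MIC, μg/mL.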

[3] = system: Klebsiella pneumoniae (K. pneumoniae) 35657; test: Antibacterial activity, MIC (Table 4); assay type: cell-based; conditions: K. pneumoniae 35657, read-out: MIC, 35657
Excerpt: (§1) The antibacterial activity from a microbroth dilution method may be presented as the minimum inhibitory concentration (MIC in μg/mL). The MIC value is the lowest concentration of drug which prevents macroscopically visible growth under test conditions.
(§2) Antibacterial activity of test compounds against the Gram-negative Acinetobacter baumannii (A. baumannii) BAA747 and Klebsiella pneumoniae (K. pneumoniae) 35657 bacterium and the resistant A. baumannii MXX2240 and K. pneumoniae MXX1232 strains are shown in Table 4. The MMX strains are multi-drug resistant clinical isolates.

[4] = system: Acinetobacter baumannii (A. baumannii) BAA747; test: Antibacterial activity, MIC (Table 4); assay type: cell-based; conditions: A. baumannii BAA747, read-out: MIC, BAA747
Excerpt: as §1, §2

[5] = system: Escherichia coli (E. coli) BAS849; test: Antibacterial activity, microbroth dilution MIC (Table 1); assay type: cell-based; conditions: microbroth dilution, super sensitive Gram-negative E. coli BAS849, read-out: MIC, BAS849
How it was run: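 Values are MICs (μg/mL): the smallest drug amount at which macroscopically visible bacterial growth is absent under assay conditions, from a microdilution method in broth.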

[6] = system: Staphylococcus aureus (S. aureus) 29213; test: as above; assay type: cell-based; conditions: microbroth dilution, Gram-positive S. aureus 29213, read-out: MIC, 29213
How it was run: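 Each strain is exposed to test compound in a microbroth dilution series; visible growth is scored macroscopically, and the lowest growth-free concentration is recorded as MIC in μg/mL.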

[7] = system: K. pneumoniae MXX1232; test: Antibacterial activity, MIC, resistant strain (Table 4); assay type: cell-based; conditions: Klebsiella pneumoniae, MXX1232; resistant K. pneumoniae MMX1232, multi-drug resistant clinical isolate; read-out: MIC, MMX1232
Excerpt: as §1, §2

[8] = system: A. baumannii MXX2240; test: as above; assay type: cell-based; conditions: Acinetobacter baumannii, MXX2240; resistant A. baumannii MMX2240, multi-drug resistant clinical isolate; read-out: MIC, MMX2240
Excerpt: as §1, §2

[9] = system: Pseudomonas aeruginosa (P. aeruginosa) 27853; test: Antibacterial activity, MIC (Table 5); assay type: cell-based; conditions: P. aeruginosa 27853, read-out: MIC, 27853
Excerpt: as §1
Antibacterial activity of test compounds against the Gram-negative bacterium Pseudomonas aeruginosa (P. aeruginosa) 27853 is shown in Table 5.

Structure (SMILES) | MIC [1] [µg/mL] | MIC [2] [µg/mL] | MIC [3] [µg/mL] | MIC [4] [µg/mL] | MIC [5] [µg/mL] | MIC [6] [µg/mL] | MIC [7] [µg/mL] | MIC [8] [µg/mL] | MIC [9] [µg/mL]
CCC(C)NCc1cc2cc(-c3[nH]c(=O)c(C(=O)O)c(O)c3C)ccc2n1C (stereo not drawn) [Cpd 347, 6-(2-((sec-butylamino)methyl)-1-methyl-1H-indol-5-yl)-4-hydroxy-5-methyl-2-oxo-1,2-dihydropyridine-3-carboxylic acid] | 3.5 to 12.5 (≈ 9.13 to 32.6 µM) | 1 to 3.5 (≈ 2.61 to 9.13 µM) | 1 to 3.5 (≈ 2.61 to 9.13 µM) | < 1 | < 1 | 12.5 to 150 (≈ 32.6 to 391 µM) | 12.5 to 150 (≈ 32.6 to 391 µM) | < 1 | 12.5 to 150 (≈ 32.6 to 391 µM)
Cc1c(-c2ccc3c(c2)cc(CNC(C)C)n3C)[nH]c(=O)c(C(=O)O)c1O [Cpd 348, 4-hydroxy-6-(2-((isopropylamino)methyl)-1-methyl-1H-indol-5-yl)-5-methyl-2-oxo-1,2-dihydropyridine-3-carboxylic acid] | 3.5 to 12.5 (≈ 9.47 to 33.8 µM) | 1 to 3.5 (≈ 2.71 to 9.47 µM) | 1 to 3.5 (≈ 2.71 to 9.47 µM) | 1 to 3.5 (≈ 2.71 to 9.47 µM) | < 1 | 12.5 to 150 (≈ 33.8 to 406 µM) | 12.5 to 150 (≈ 33.8 to 406 µM) | 1 to 3.5 (≈ 2.71 to 9.47 µM) | 12.5 to 150 (≈ 33.8 to 406 µM)
Cc1c(-c2ccc3c(c2)cc(CNC(C)CO)n3C)[nH]c(=O)c(C(=O)O)c1O (stereo not drawn) [Cpd 349, 4-hydroxy-6-(2-((1-hydroxypropan-2-ylamino)methyl)-1-methyl-1H-indol-5-yl)-5-methyl-2-oxo-1,2-dihydropyridine-3-carboxylic acid] | 12.5 to 150 (≈ 32.4 to 389 µM) | 3.5 to 12.5 (≈ 9.08 to 32.4 µM) | 3.5 to 12.5 (≈ 9.08 to 32.4 µM) | 12.5 to 150 (≈ 32.4 to 389 µM) | 1 to 3.5 (≈ 2.59 to 9.08 µM) | 12.5 to 150 (≈ 32.4 to 389 µM) | 12.5 to 150 (≈ 32.4 to 389 µM) | 12.5 to 150 (≈ 32.4 to 389 µM) | 12.5 to 150 (≈ 32.4 to 389 µM)
Cc1c(-c2ccc3c(c2)cc(CNCCO)n3C)[nH]c(=O)c(C(=O)O)c1O [Cpd 350, 4-hydroxy-6-(2-((2-hydroxyethylamino)methyl)-1-methyl-1H-indol-5-yl)-5-methyl-2-oxo-1,2-dihydropyridine-3-carboxylic acid] | 12.5 to 150 (≈ 33.7 to 404 µM) | 3.5 to 12.5 (≈ 9.42 to 33.7 µM) | 12.5 to 150 (≈ 33.7 to 404 µM) | 12.5 to 150 (≈ 33.7 to 404 µM) | 3.5 to 12.5 (≈ 9.42 to 33.7 µM) | 12.5 to 150 (≈ 33.7 to 404 µM) | 12.5 to 150 (≈ 33.7 to 404 µM) | 12.5 to 150 (≈ 33.7 to 404 µM) | 12.5 to 150 (≈ 33.7 to 404 µM)
Cc1c(-c2ccc3c(c2)cc(CNC(C)(C)C)n3C)[nH]c(=O)c(C(=O)O)c1O [Cpd 351, 6-(2-((tert-butylamino)methyl)-1-methyl-1H-indol-5-yl)-4-hydroxy-5-methyl-2-oxo-1,2-dihydropyridine-3-carboxylic acid] | 1 to 3.5 (≈ 2.61 to 9.13 µM) | 3.5 to 12.5 (≈ 9.13 to 32.6 µM) | 1 to 3.5 (≈ 2.61 to 9.13 µM) | < 1 | < 1 | 12.5 to 150 (≈ 32.6 to 391 µM) | 12.5 to 150 (≈ 32.6 to 391 µM) | 1 to 3.5 (≈ 2.61 to 9.13 µM) | 12.5 to 150 (≈ 32.6 to 391 µM)
CCCNCc1cc2cc(-c3[nH]c(=O)c(C(=O)O)c(O)c3C)ccc2n1C [Cpd 352, 4-hydroxy-5-methyl-6-(1-methyl-2-((propylamino)methyl)-1H-indol-5-yl)-2-oxo-1,2-dihydropyridine-3-carboxylic acid] | 3.5 to 12.5 (≈ 9.47 to 33.8 µM) | < 1 | 1 to 3.5 (≈ 2.71 to 9.47 µM) | 3.5 to 12.5 (≈ 9.47 to 33.8 µM) | < 1 | 12.5 to 150 (≈ 33.8 to 406 µM) | 12.5 to 150 (≈ 33.8 to 406 µM) | 1 to 3.5 (≈ 2.71 to 9.47 µM) | 12.5 to 150 (≈ 33.8 to 406 µM)
Cc1c(-c2ccc3c(c2)cc(CNCC(C)C)n3C)[nH]c(=O)c(C(=O)O)c1O [Cpd 353, 4-hydroxy-6-(2-((isobutylamino)methyl)-1-methyl-1H-indol-5-yl)-5-methyl-2-oxo-1,2-dihydropyridine-3-carboxylic acid] | 3.5 to 12.5 (≈ 9.13 to 32.6 µM) | 1 to 3.5 (≈ 2.61 to 9.13 µM) | 3.5 to 12.5 (≈ 9.13 to 32.6 µM) | 3.5 to 12.5 (≈ 9.13 to 32.6 µM) | < 1 | 12.5 to 150 (≈ 32.6 to 391 µM) | 12.5 to 150 (≈ 32.6 to 391 µM) | < 1 | 12.5 to 150 (≈ 32.6 to 391 µM)
Cc1c(-c2ccc3c(c2)cc(CNC2CC2)n3C)[nH]c(=O)c(C(=O)O)c1O [Cpd 355, 6-(2-((cyclopropylamino)methyl)-1-methyl-1H-indol-5-yl)-4-hydroxy-5-methyl-2-oxo-1,2-dihydropyridine-3-carboxylic acid] | 3.5 to 12.5 (≈ 9.53 to 34 µM) | < 1 | 3.5 to 12.5 (≈ 9.53 to 34 µM) | 3.5 to 12.5 (≈ 9.53 to 34 µM) | < 1 | 12.5 to 150 (≈ 34 to 408 µM) | 12.5 to 150 (≈ 34 to 408 µM) | < 1 | 12.5 to 150 (≈ 34 to 408 µM)
Cc1c(-c2ccc3c(c2)cc(CNC2(C)CC2)n3C)[nH]c(=O)c(C(=O)O)c1O [Cpd 356, 4-hydroxy-5-methyl-6-(1-methyl-2-((1-methylcyclopropylamino)methyl)-1H-indol-5-yl)-2-oxo-1,2-dihydropyridine-3-carboxylic acid] | 3.5 to 12.5 (≈ 9.18 to 32.8 µM) | < 1 | 3.5 to 12.5 (≈ 9.18 to 32.8 µM) | < 1 | < 1 | 3.5 to 12.5 (≈ 9.18 to 32.8 µM) | 12.5 to 150 (≈ 32.8 to 393 µM) | < 1 | 12.5 to 150 (≈ 32.8 to 393 µM)
